Laboratory results from PMC5991599, “Anti‐tumor efficacy of a novel CLK inhibitor via targeting RNA splicing and MYC‐dependent vulnerability” (EMBO Molecular Medicine, 2018).

How the values were obtained:
[1] = system: MV-4-11 AML cell line xenografts; experiment: Efficacy study in MV-4-11 xenograft model; assay type: in vivo, Balb/c nude mice; conditions: 37.5 and 50 mg/kg
Procedure: MDA‐MB‐468 (5 × 10^6), NCI‐H1048 (5 × 10^6), or MV‐4‐11 (2 × 10^6) cells in Matrigel were subcutaneously inoculated into the left flanks of Balb/c nude mice (7‐ to 8‐week‐old females). When xenografted tumors grew to a sufficient volume, the tumor diameter was measured and its volume was calculated as follows:
(§1) Tumor volume=long diameter×short diameter×short diameter×(1/2)
(§2) Mice having a tumor of size approximately 200 mm^3 were used in efficacy or in vivo pharmacodynamics studies. T‐025 was dissolved in 0.5% methylcellulose solution. For the efficacy study, after randomized grouping, mice were treated with T‐025 twice daily once or twice weekly for 2 or 3 weeks. The mouse tumor volume and body weight were measured every 2–3 days.

HIPK2 = HIPK2 (Homo sapiens, UniProt Q9H2X6); experiment: KINOMEScan-based kinase selectivity assay; assay type: binding; parameters: purchased DiscoverX Corporation (Fremont, CA, USA)
Sequence of HIPK2 (Q9H2X6 whole entry): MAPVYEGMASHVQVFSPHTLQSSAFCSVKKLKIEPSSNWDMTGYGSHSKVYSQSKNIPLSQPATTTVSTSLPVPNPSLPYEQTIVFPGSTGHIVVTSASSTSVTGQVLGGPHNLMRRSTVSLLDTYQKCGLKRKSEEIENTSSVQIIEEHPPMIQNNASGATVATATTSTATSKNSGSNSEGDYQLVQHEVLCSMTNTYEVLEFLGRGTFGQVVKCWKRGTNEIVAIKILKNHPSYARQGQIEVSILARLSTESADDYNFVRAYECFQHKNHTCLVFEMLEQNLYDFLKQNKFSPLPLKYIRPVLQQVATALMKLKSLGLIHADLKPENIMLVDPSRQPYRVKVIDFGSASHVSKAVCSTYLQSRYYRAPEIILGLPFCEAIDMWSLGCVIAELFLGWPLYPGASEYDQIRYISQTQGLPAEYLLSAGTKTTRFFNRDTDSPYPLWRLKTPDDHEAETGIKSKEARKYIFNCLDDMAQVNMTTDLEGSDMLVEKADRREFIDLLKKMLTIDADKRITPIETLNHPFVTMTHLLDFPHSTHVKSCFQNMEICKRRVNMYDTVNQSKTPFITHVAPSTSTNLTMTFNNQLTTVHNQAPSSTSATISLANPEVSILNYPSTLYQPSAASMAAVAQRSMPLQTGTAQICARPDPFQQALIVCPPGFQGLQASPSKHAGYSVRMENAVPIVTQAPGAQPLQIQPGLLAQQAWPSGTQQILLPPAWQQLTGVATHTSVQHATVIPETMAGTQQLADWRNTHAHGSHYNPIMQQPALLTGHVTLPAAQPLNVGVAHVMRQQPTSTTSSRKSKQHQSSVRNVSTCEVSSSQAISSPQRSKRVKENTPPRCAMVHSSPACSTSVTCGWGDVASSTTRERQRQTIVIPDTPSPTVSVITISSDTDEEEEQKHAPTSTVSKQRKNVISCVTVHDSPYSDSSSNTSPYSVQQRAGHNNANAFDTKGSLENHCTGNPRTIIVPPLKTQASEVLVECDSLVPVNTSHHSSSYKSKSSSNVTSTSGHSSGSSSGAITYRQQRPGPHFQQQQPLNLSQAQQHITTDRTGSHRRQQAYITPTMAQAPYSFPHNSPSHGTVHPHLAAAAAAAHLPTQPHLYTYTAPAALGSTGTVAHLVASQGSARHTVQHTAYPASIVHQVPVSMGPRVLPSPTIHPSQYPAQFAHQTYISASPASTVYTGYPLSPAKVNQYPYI
Procedure: (§3) The KINOMEScan‐based kinase selectivity assay was performed at the DiscoverX Corporation (Fremont, CA, USA). The panel of growth inhibition assay and subsequent bioinformatics analysis (Fig EV1) were performed at Eurofins Inc. (St. […] Details of the procedures of cell proliferation assay, caspase‐3/7 activity assay, immunoblotting, and immunohistochemistry are described in Appendix Supplementary Methods.

DYRK1B = DYRK1B (Homo sapiens, UniProt Q9Y463); experiment: KINOMEScan-based kinase selectivity assay; assay type: binding; parameters: purchased DiscoverX Corporation (Fremont, CA, USA)
Sequence of DYRK1B (Q9Y463 whole entry): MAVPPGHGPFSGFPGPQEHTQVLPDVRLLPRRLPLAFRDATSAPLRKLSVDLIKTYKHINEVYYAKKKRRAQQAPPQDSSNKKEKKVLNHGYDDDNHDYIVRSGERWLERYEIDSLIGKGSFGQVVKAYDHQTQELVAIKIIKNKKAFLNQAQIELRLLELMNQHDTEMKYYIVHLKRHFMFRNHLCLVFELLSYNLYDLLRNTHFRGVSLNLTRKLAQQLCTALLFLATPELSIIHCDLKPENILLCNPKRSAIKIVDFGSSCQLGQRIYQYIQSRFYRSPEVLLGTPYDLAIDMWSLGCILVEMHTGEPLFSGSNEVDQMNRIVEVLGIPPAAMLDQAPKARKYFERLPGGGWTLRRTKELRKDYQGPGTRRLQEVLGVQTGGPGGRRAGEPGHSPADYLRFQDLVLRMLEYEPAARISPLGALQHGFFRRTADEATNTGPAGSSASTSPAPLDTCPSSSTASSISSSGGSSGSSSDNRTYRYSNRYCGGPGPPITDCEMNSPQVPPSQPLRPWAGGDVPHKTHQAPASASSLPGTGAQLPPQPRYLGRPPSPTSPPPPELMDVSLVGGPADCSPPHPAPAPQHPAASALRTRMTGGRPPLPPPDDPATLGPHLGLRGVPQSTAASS
Procedure: as §3

MDA-MB-468 xenograft = experiment: Efficacy study in MDA-MB-468 xenograft model; assay type: in vivo, Balb/c nude mice; conditions: 50 mg/kg oral, twice daily on 2 days per week
Procedure: When xenografted tumors grew to a sufficient volume, the tumor diameter was measured and its volume was calculated as follows:
as §1, §2

[2] = system: xenografts derived from AML patient (PDX); experiment: Efficacy study in patient-derived xenograft model of acute myeloid leukemia; assay type: in vivo, NOG mice; conditions: 25 and 50 mg/kg, twice daily at twice weekly
Text: To establish the patient‐derived xenograft model, a small piece of tumor purchased from Dr. Naoe at Nagoya University was subcutaneously inoculated into NOG mice (7‐ to 8‐week‐old females, CIEA Japan, Inc., Kanagawa, Japan). After three rounds of in vivo propagation, tumors were used for efficacy assessment.
as §1, §2

Compound: CNc1nc(NCc2ncccn2)c2c(-c3ccc4ncccc4c3)c[nH]c2n1 [T-025, N ^2‐methyl‐N ^4‐[pyrimidin‐2‐ylmethyl]‐5‐[quinolin‐6‐yl]‐7H‐pyrrolo[2,3‐d]pyrimidine‐2,4‐diamine]
- anti-tumor efficacy, tumor volume [1]: profound anti‐tumor efficacies
- Kd (HIPK2): 0.096 µM
- inhibition at 0.3 µM (HIPK2; 300 nmol/L, n = 2): 96%
- Kd (DYRK1B): 0.0015 µM
- inhibition at 0.3 µM (DYRK1B; 300 nmol/L, n = 2): 99.6%
- nadir body weight loss (MDA-MB-468 xenograft; 3 weeks, near the maximum tolerated dose): < 10%
- anti-tumor effect, tumor volume (MDA-MB-468 xenograft; end of 3-week treatment cycle): tumor volumes had shrunk relative to the initial volumes
- anti-tumor efficacy, tumor volume [2]: profound anti‐tumor efficacies
